Experiments:
mPTP-active Daoy cell = test: Inhibitory effect on mPTP-active Daoy cell (Promega CellTiter-Glo, intracellular ATP); assay type: cell-based, human; details: Daoy cell transfected with empty virus vector without PPIF shRNA
mPTP-inactive Daoy cell = test: Inhibitory effect on mPTP-inactive Daoy cell (PPIF shRNA; Promega CellTiter-Glo, intracellular ATP); assay type: cell-based, human; details: Daoy cell transfected with virus vector carrying PPIF shRNA
Source text: The activity of mitochondria permeability transition pore (mPTP) was regulated by the PPIF protein. […] PPIF protein activity was restricted by the expression level of PPIF protein in cell.

Compound	IC50 (mPTP-active Daoy cell; Homo sapiens, Daoy) [nM]	IC50 (mPTP-inactive Daoy cell; Homo sapiens, Daoy) [nM]	IC50 (mPTP-active Daoy cell) [nM]	IC50 (mPTP-inactive Daoy cell) [nM]
COc1ccc2c(c1OC)C(C(Cl)(Cl)Cl)N1CCc3cc4c(cc3C1=C2CCCCCCBr)OCO4 (centres unmarked) [AB35501]	4980	1910	–	–
CCCCC1=C2c3cc4c(cc3CCN2C(C(Cl)(Cl)Cl)c2c1ccc(OC)c2OC)OCO4 (centres unmarked) [AB35502]	6140	2970	–	–
CCCC1=C2c3cc4c(cc3CCN2C(C2CCCC2)c2c1ccc(OC)c2OC)OCO4 (centres unmarked) [AB35504]	10600	4250	–	–
CCCCCOc1c(OC)ccc2c1C(C(Cl)(Cl)Cl)N1CCc3cc4c(cc3C1=C2)OCO4 (centres unmarked) [AB35505]	1240	420	–	–
CCCOc1c(OC)ccc2c1C(C(Cl)(Cl)Cl)N1CCc3cc4c(cc3C1=C2)OCO4 (centres unmarked) [AB35506]	3450	1490	–	–
CCCCCCC1=C2c3cc4c(cc3CCN2C(C(Cl)(Cl)Cl)c2c1ccc(OC)c2OC)OCO4 (centres unmarked) [AB35508]	2250	990	–	–
COc1ccc2c(c1N1CCN(C)CC1)C(C1CCCC1)N1CCc3cc4c(cc3C1=C2)OCO4 (centres unmarked) [AB35510]	–	–	830	290
CCCOc1c(OC)ccc2c1C(C1CCCC1)N1CCc3cc4c(cc3C1=C2)OCO4 (centres unmarked) [AB35512]	4270	1570	–	–
COc1ccc2c(c1N1CCC(C(F)(F)F)CC1)C(C(Cl)(Cl)Cl)N1CCc3cc4c(cc3C1=C2)OCO4 (centres unmarked) [AB35514]	3420	1330	–	–
COc1ccc2c(c1N1CCN(C)CC1)C(C(Cl)(Cl)Cl)N1CCc3cc4c(cc3C1=C2)OCO4 (centres unmarked) [AB35518]	8250	3080	–	–
COc1ccc2c(c1N1CCN(C)CC1)C(C1CCCC1)N1CCc3cc4c(cc3C1=C2)OCO4 (centres unmarked) [AB35519]	–	–	13600	6030
CCC(CC)COc1c(OC)ccc2c1C(C(Cl)(Cl)Cl)N1CCc3cc4c(cc3C1=C2)OCO4 (centres unmarked) [AB35521]	2400	1030	–	–
CCCCCC1=C2c3cc4c(cc3CCN2C(C2CCCC2)c2c1ccc(OC)c2OC)OCO4 (centres unmarked) [AB35522]	3950	1340	–	–
COc1ccc2c(c1OC)C(C1CCCC1)N1CCc3cc4c(cc3C1=C2CCCCCCBr)OCO4 (centres unmarked) [AB35523]	3220	1390	–	–
COc1ccc2c(c1OC)C(C(Cl)(Cl)Cl)N1CCc3cc4c(cc3C1=C2CCCCCCCl)OCO4 (centres unmarked) [AB35524]	4040	1900	–	–
COc1ccc2c(c1OCCCc1ccccc1)C(C(Cl)(Cl)Cl)N1CCc3cc4c(cc3C1=C2)OCO4 (centres unmarked) [AB35525]	2480	700	–	–
COc1ccc2c(c1OCc1ccccc1-c1ccccc1)C(C(Cl)(Cl)Cl)N1CCc3cc4c(cc3C1=C2)OCO4 (centres unmarked) [AB35531]	3600	1550	–	–
C=CCOc1c(OC)ccc2c1C(C(Cl)(Cl)Cl)N1CCc3cc4c(cc3C1=C2)OCO4 (centres unmarked) [AB35534]	3920	1280	–	–
COc1ccc2c(c1OCCCCc1ccccc1)C(C(Cl)(Cl)Cl)N1CCc3cc4c(cc3C1=C2)OCO4 (centres unmarked) [AB35535]	590	180	–	–
CCCOc1c(OC)ccc2c1CN1CCc3cc4c(cc3C1=C2)OCO4 [AB35536]	1300	400	–	–
COc1ccc2c(c1OCCCCl)CN1CCc3cc4c(cc3C1=C2)OCO4 [AB35543]	1220	440	–	–
COc1ccc2c(c1OCCCBr)CN1CCc3cc4c(cc3C1=C2)OCO4 [AB35544]	720	200	–	–
COc1ccc2c(c1N1CCC(C)CC1)CN1CCc3cc4c(cc3C1=C2)OCO4 [AB35545]	530	200	–	–
COc1ccc2c(c1N1CCC(Cl)CC1)CN1CCc3cc4c(cc3C1=C2)OCO4 [AB35550]	6360	2050	–	–
COc1ccc2c(c1OCCCF)CN1CCc3cc4c(cc3C1=C2)OCO4 [AB35590]	4540	1410	–	–
CCOc1c(OC)ccc2c1CN1CCc3cc4c(cc3C1=C2)OCO4 [AB35594]	2660	1100	–	–

Compound	IC50 (mPTP-active Daoy cell; Homo sapiens, Daoy) [nM]	IC50 (mPTP-inactive Daoy cell; Homo sapiens, Daoy) [nM]	IC50 (mPTP-active Daoy cell) [nM]	IC50 (mPTP-inactive Daoy cell) [nM]
COc1ccc2c(c1OCCF)CN1CCc3cc4c(cc3C1=C2)OCO4 [AB35599]	5410	2430	–	–
COc1ccc2c(c1OCCBr)CN1CCc3cc4c(cc3C1=C2)OCO4 [AB36403]	1660	540	–	–
[2H]C1c2c(ccc(OC)c2OC)C=C2c3cc4c(cc3CCN21)OCO4 (centres unmarked) [AB36415]	2180	1070	–	–
CCCC1c2c(ccc3c2OCO3)C=C2c3cc4c(cc3CCN21)OCO4 (centres unmarked) [AB36416]	3780	1440	–	–
C1=C2c3cc4c(cc3CCN2C(C2CCCC2)c2c1ccc1c2OCO1)OCO4 (centres unmarked) [AB36423]	6760	2020	–	–
CCC1=C2c3cc4c(cc3CCN2C(C(Cl)(Cl)Cl)c2c1ccc1c2OCO1)OCO4 (centres unmarked) [AB36426]	30900	35000	–	–
CCCC1=C2c3cc4c(cc3CCN2C(C(Cl)(Cl)Cl)c2c1ccc1c2OCO1)OCO4 (centres unmarked) [AB36427]	11900	4300	–	–
C1=C2c3cc4c(cc3CCN2Cc2cc3c(cc21)OCO3)OCO4 [AB36428]	920	400	–	–
CCCC1=C2c3cc4c(cc3CCN2C(C2CCCC2)c2c1ccc1c2OCO1)OCO4 (centres unmarked) [AB36432]	4320	1880	–	–
CCCCCC1c2c(ccc3c2OCO3)C=C2c3cc4c(cc3CCN21)OCO4 (centres unmarked) [AB36433]	1920	580	–	–
[2H]C1([2H])c2c(ccc(OC)c2OC)C=C2c3cc4c(cc3CCN21)OCO4 [AB36434]	2420	1130	–	–
[2H]C1c2c(ccc(OC)c2OCCC)C=C2c3cc4c(cc3CCN21)OCO4 (centres unmarked) [AB36437]	1370	540	–	–
CC1=C2c3cc4c(cc3CCN2C(C(Cl)(Cl)Cl)c2c1ccc1c2OCO1)OCO4 (centres unmarked) [AB36442]	29900	29200	–	–
COc1ccc2c(c1OC)C(C1CCC1)N1CCc3cc4c(cc3C1=C2)OCO4 (centres unmarked) [AB36447]	6730	2650	–	–
COc1ccc2c(c1Cl)CN1CCc3cc4c(cc3C1=C2)OCO4 [AB36450]	5120	2230	–	–
COc1ccc2c(c1Br)CN1CCc3cc4c(cc3C1=C2)OCO4 [AB36460]	2710	1270	–	–
COc1ccc2c(c1OC)CN1CCc3cc4c(cc3C1=C2)OCO4 [AB36463]	1950	880	–	–
COc1ccc2c(c1OC)C(c1ccccc1)N1CCc3cc4c(cc3C1=C2)OCO4 (centres unmarked) [AB36467]	12100	4630	–	–
COc1ccc2c(c1OC)C(CC(C)=O)N1CCc3cc4c(cc3C1=C2)OCO4 (centres unmarked) [AB36472]	15800	15900	–	–
COc1c(OCCCCl)ccc2c1C(C1CCCC1)N1CCc3cc4c(cc3C1=C2)OCO4 (centres unmarked) [AB36474]	4260	1390	–	–
[2H]C1([2H])c2c(ccc(OC)c2OC)C=C2c3cc4c(cc3CCN21)OCO4 [AB36476]	–	–	2400	1100
[2H]C1c2c(ccc(OC)c2OC)C=C2c3cc4c(cc3CC([2H])([2H])N21)OCO4 (centres unmarked) [AB36477]	2540	1320	–	–
COc1ccc2c(c1OC)C(c1ccncc1)N1CCc3cc4c(cc3C1=C2)OCO4 (centres unmarked) [AB36488]	27000	26900	–	–
COc1ccc2c(c1N1CCCCCC1)CN1CCc3cc4c(cc3C1=C2)OCO4 [AB36493]	1340	350	–	–
COc1ccc2cc3n(c(=O)c2c1OC)CCc1cc2c(cc1-3)OCO2 [AB36496]	86300	> 100000	–	–
COc1ccc2c(c1OC)C(C1CCCC1)N1CCc3cc4c(cc3C1C2)OCO4 (centres unmarked) [AB36497]	67400	69000	–	–
